Where “and” joins values, the source holds several entries; their conditions need not be identical. Identical values can stand only once. Inconclusive results and toxic doses are left out.

The experiment relates to CD2F1 mice, L1210 leukemia ip, survival T/C. Briefly: NCI In Vivo Anticancer Drug Screen. Data for tumor model L1210 Leukemia (intraperitoneal) in CD2F1 (CDF1) mice. The note with it: higher = longer survival. The method in brief: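 Antitumor effect is scored in animals hosting a serially transplanted tumor. Values compare compound-dosed animals against vehicle-only controls as a simple quotient.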

The mark [1] stands for this setting: endpoint: mean survival time, dose: 100.0 mg/kg/injection, schedule: Q01DX009 (ip), vehicle: saline with Tween-80.
[2] abbreviates: endpoint: mean survival time, dose: 200.0 mg/kg/injection, schedule: Q01DX009 (ip), vehicle: saline with Tween-80.
Where [3] appears, read: endpoint: mean survival time, dose: 100.0 mg/kg/injection, schedule: Q04DX003 (ip), vehicle: saline with Tween-80.
Where [4] appears, read: endpoint: mean survival time, dose: 200.0 mg/kg/injection, schedule: Q04DX003 (ip), vehicle: saline with Tween-80.
Where [5] appears, read: endpoint: mean survival time, dose: 400.0 mg/kg/injection, schedule: Q04DX003 (ip), vehicle: saline with Tween-80.
Setting [6] is: endpoint: mean survival time, dose: 50.0 mg/kg/injection, schedule: Q01DX009 (ip), vehicle: Klucel (hydroxypropylcellulose) (HPC).
Where [7] appears, read: endpoint: mean survival time, dose: 100.0 mg/kg/injection, schedule: Q01DX009 (ip), vehicle: Klucel (hydroxypropylcellulose) (HPC).
Setting [8] is: endpoint: mean survival time, dose: 200.0 mg/kg/injection, schedule: Q01DX009 (ip), vehicle: Klucel (hydroxypropylcellulose) (HPC).

With `Clc1ccc(NC(Nc2ccc(Cl)cc2Cl)C(Cl)(Cl)Cl)c(Cl)c1`, the T/C is 101 % of control under setting [1]; 106 % of control under setting [2]; 95 % of control (endpoint: mean survival time, dose: 400.0 mg/kg/injection, schedule: Q01DX009 (ip), vehicle: saline with Tween-80).

Turning to `N#CC12C(=N)CCC1C1CC2C2C3C=CC(C3)C12` (stereo not drawn), the T/C was 96 % of control under setting [3], 96 % of control under setting [4] and 95 % of control under setting [5].

As for `CC(=O)CC(=O)C(F)(F)F.CC(=O)CC(=O)C(F)(F)F.CC(=O)CC(=O)C(F)(F)F.[Sm]`, the T/C is 95 % of control under setting [3], 100 % of control under setting [4] and 100 % of control under setting [5].

With `[O-][n+]1ccnc2ccccc21`, the T/C was 105 % of control (endpoint: mean survival time, dose: 100.0 mg/kg/injection, schedule: Q04DX002 (ip), vehicle: saline); 116 % of control (endpoint: mean survival time, dose: 200.0 mg/kg/injection, schedule: Q04DX002 (ip), vehicle: saline); 108 % of control (endpoint: mean survival time, dose: 400.0 mg/kg/injection, schedule: Q04DX002 (ip), vehicle: saline).

For `OCCOCC(F)(F)F`, the T/C is 100 % of control (endpoint: mean survival time, dose: 6.25 mg/kg/injection, schedule: Q01DX009 (ip), vehicle: saline with Tween-80); 90 % of control and 112 % of control (endpoint: mean survival time, dose: 12.5 mg/kg/injection, schedule: Q01DX009 (ip), vehicle: saline with Tween-80); 95 % of control and 102 % of control (endpoint: mean survival time, dose: 25.0 mg/kg/injection, schedule: Q01DX009 (ip), vehicle: saline with Tween-80); 94 % of control and 100 % of control (endpoint: mean survival time, dose: 50.0 mg/kg/injection, schedule: Q01DX009 (ip), vehicle: saline with Tween-80); 94 % of control and 100 % of control under setting [1]; 94 % of control and 110 % of control under setting [2].

As for `CN(C)C1C(=O)C(C(=O)NP(=O)(NCCCO)N(CCCl)CCCl)=C(O)C2(O)C(=O)C3=C(O)c4c(O)cccc4C(C)(O)C3CC12` (stereo not drawn), the T/C is 102 % of control (endpoint: mean survival time, dose: 1.56 mg/kg/injection, schedule: Q01DX001 (ip), vehicle: saline with Tween-80); 96 % of control (endpoint: mean survival time, dose: 3.12 mg/kg/injection, schedule: Q01DX001 (ip), vehicle: saline with Tween-80); 104 % of control (endpoint: mean survival time, dose: 15.62 mg/kg/injection, schedule: Q01DX001 (ip), vehicle: saline with Tween-80); 100 % of control (endpoint: mean survival time, dose: 31.25 mg/kg/injection, schedule: Q01DX001 (ip), vehicle: saline with Tween-80); 100 % of control and 106 % of control (endpoint: mean survival time, dose: 62.5 mg/kg/injection, schedule: Q01DX001 (ip), vehicle: saline with Tween-80); 124 % of control and 100 % of control (endpoint: mean survival time, dose: 125.0 mg/kg/injection, schedule: Q01DX001 (ip), vehicle: saline with Tween-80). Besides, the T/C is 122 % of control and 110 % of control (endpoint: mean survival time, dose: 250.0 mg/kg/injection, schedule: Q01DX001 (ip), vehicle: saline with Tween-80); 156 % of control (endpoint: mean survival time, dose: 500.0 mg/kg/injection, schedule: Q01DX001 (ip), vehicle: saline with Tween-80); 110 % of control (endpoint: median survival time, dose: 25.0 mg/kg/injection, schedule: Q01DX009 (ip), vehicle: saline with Tween-80); 118 % of control (endpoint: median survival time, dose: 50.0 mg/kg/injection, schedule: Q01DX009 (ip), vehicle: saline with Tween-80); 157 % of control (endpoint: median survival time, dose: 100.0 mg/kg/injection, schedule: Q01DX009 (ip), vehicle: saline with Tween-80); 201 % of control and 202 % of control (endpoint: median survival time, dose: 200.0 mg/kg/injection, schedule: Q01DX009 (ip), vehicle: saline with Tween-80). For the same molecule, under “endpoint: median survival time, dose: 400.0 mg/kg/injection, schedule: Q01DX009 (ip), vehicle: saline with Tween-80”, the T/C was 116 % of control.

Regarding `COC1=CC23CCCN2CCc2cc4c(cc2C3C1O)OCO4` (stereo not drawn), the T/C by setting is: (endpoint: mean survival time, dose: 12.5 mg/kg/injection, schedule: Q01DX009 (ip), vehicle: water) 97 % of control; (endpoint: mean survival time, dose: 25.0 mg/kg/injection, schedule: Q01DX009 (ip), vehicle: water) 101 % of control; (endpoint: mean survival time, dose: 50.0 mg/kg/injection, schedule: Q01DX009 (ip), vehicle: water) 100 % of control; (endpoint: mean survival time, dose: 100.0 mg/kg/injection, schedule: Q01DX009 (ip), vehicle: water) 95 % of control; (endpoint: mean survival time, dose: 200.0 mg/kg/injection, schedule: Q01DX009 (ip), vehicle: water) 97 % of control.

Regarding `Nc1nc(N)c2[nH]c(-c3ccccc3)nc2n1`, the T/C by setting is: (endpoint: mean survival time, dose: 6.25 mg/kg/injection, schedule: Q01DX005 (ip), vehicle: saline with Tween-80) 100 % of control; (endpoint: mean survival time, dose: 12.5 mg/kg/injection, schedule: Q01DX005 (ip), vehicle: saline with Tween-80) 97 % of control; (endpoint: mean survival time, dose: 25.0 mg/kg/injection, schedule: Q01DX005 (ip), vehicle: saline with Tween-80) 99 % of control; (endpoint: mean survival time, dose: 50.0 mg/kg/injection, schedule: Q01DX005 (ip), vehicle: saline with Tween-80) 99 % of control.

For `COC(=O)C1(C)CCCC2(C)C3CCC(C)(CCO)CC3C(O)CC12` (stereo not drawn), the T/C (endpoint: mean survival time, dose: 100.0 mg/kg/injection, schedule: Q01DX001 (ip), vehicle: saline sonified) is 102 % of control; the T/C (endpoint: mean survival time, dose: 100.0 mg/kg/injection, schedule: Q01DX001 (ip), vehicle: saline with Tween-80) was 96 % of control; the T/C (endpoint: mean survival time, dose: 200.0 mg/kg/injection, schedule: Q01DX001 (ip), vehicle: saline sonified) was 101 % of control; the T/C (endpoint: mean survival time, dose: 200.0 mg/kg/injection, schedule: Q01DX001 (ip), vehicle: saline with Tween-80) is 101 % of control; the T/C (endpoint: mean survival time, dose: 400.0 mg/kg/injection, schedule: Q01DX001 (ip), vehicle: saline sonified) is 93 % of control; the T/C (endpoint: mean survival time, dose: 400.0 mg/kg/injection, schedule: Q01DX001 (ip), vehicle: saline with Tween-80) was 105 % of control.

Consider `CC1C(O)=C(c2ccccc2)P(=O)(Cc2ccccc2)C1C` (stereo not drawn), for which the T/C by setting is: under setting [6], 104 % of control; under setting [7], 93 % of control; under setting [8], 93 % of control.

With `Cc1ccc(NC(=O)c2ccc(Cl)cc2)c(Br)c1`, the T/C under setting [3] was 103 % of control, the T/C under setting [4] was 105 % of control and the T/C under setting [5] is 97 % of control.

With `[N-]=[N+]=NC1CC(n2ccc(N)nc2=O)OC1CO` (stereo not drawn), the T/C (endpoint: median survival time, dose: 12.5 mg/kg/injection, schedule: Q01DX005 (ip), vehicle: saline) was 113 % of control; the T/C (endpoint: median survival time, dose: 25.0 mg/kg/injection, schedule: Q01DX005 (ip), vehicle: saline) is 109 % of control; the T/C (endpoint: median survival time, dose: 50.0 mg/kg/injection, schedule: Q01DX005 (ip), vehicle: saline) is 98 % of control; the T/C (endpoint: median survival time, dose: 100.0 mg/kg/injection, schedule: Q01DX005 (ip), vehicle: saline) was 107 % of control; the T/C (endpoint: median survival time, dose: 200.0 mg/kg/injection, schedule: Q01DX005 (ip), vehicle: saline) is 103 % of control.

For the molecule `O=S(=O)(NN=C(c1ccccc1)c1ccccc1)c1ccccc1`, the T/C (endpoint: mean survival time, dose: 12.5 mg/kg/injection, schedule: Q01DX009 (ip), vehicle: Klucel (hydroxypropylcellulose) (HPC)) is 96 % of control; the T/C (endpoint: mean survival time, dose: 25.0 mg/kg/injection, schedule: Q01DX009 (ip), vehicle: Klucel (hydroxypropylcellulose) (HPC)) is 100 % of control; the T/C under setting [6] is 92 % of control; the T/C under setting [7] is 94 % of control; the T/C under setting [8] was 92 % of control; the T/C (endpoint: mean survival time, dose: 400.0 mg/kg/injection, schedule: Q01DX009 (ip), vehicle: Klucel (hydroxypropylcellulose) (HPC)) is 92 % of control.
